Our source for the IC50 values is US20250115591A1, “NOVEL SULFONAMIDE CARBOXAMIDE COMPOUNDS” (INFLAZOME LIMITED, priority 2017, published 2025).

Usually pIC50 stands for −log10 of the IC50, conventionally taken in molar units.

pIC50: −log10 of the molar value. Where a name gives a salt, the structure may show the parent alone.

Sequence of NLRP3 (Q96P20 whole entry): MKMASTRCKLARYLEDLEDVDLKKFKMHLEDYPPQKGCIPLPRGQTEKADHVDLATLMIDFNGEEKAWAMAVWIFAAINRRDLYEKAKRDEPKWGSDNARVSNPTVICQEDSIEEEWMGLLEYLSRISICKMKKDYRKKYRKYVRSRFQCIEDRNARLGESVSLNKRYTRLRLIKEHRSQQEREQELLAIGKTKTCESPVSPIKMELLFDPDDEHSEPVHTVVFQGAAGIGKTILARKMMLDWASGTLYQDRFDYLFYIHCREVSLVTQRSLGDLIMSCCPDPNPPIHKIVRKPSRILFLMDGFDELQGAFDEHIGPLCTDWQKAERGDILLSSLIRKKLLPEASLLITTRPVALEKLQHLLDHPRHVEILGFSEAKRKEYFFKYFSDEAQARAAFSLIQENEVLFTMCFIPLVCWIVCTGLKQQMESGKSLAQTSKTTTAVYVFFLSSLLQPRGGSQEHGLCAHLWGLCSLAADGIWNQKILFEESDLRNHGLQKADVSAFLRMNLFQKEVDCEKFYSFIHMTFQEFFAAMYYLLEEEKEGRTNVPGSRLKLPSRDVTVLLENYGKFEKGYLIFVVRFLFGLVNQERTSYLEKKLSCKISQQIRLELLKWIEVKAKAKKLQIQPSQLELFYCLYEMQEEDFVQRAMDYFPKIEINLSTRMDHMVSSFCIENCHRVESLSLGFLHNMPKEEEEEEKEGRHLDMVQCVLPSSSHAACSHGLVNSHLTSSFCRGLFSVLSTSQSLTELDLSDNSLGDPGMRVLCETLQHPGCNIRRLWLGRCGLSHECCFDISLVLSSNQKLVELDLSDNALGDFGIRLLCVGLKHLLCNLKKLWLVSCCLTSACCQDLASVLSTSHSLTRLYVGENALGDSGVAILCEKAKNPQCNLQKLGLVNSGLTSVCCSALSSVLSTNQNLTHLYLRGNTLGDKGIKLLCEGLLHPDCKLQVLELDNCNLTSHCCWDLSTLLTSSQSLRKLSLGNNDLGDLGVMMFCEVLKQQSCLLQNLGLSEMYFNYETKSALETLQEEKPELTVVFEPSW

This test deals with NLRP3 (Homo sapiens (Human), UniProt Q96P20). As to the kind of experiment: THP-1 cells pyroptosis assay (LPS + nigericin, resazurin read-out). It counts as cell-based. As to conditions: 1 μg/ml LPS, 5 μM nigericin. Here is the method:
THP-1 cells (ATCC #TIB-202) were grown in RPMI containing L-glutamine (Gibco 15 #11835) supplemented with 1 mM sodium pyruvate (Sigma #S8636) and penicillin (100 units/ml)/streptomycin (0.1 mg/ml) (Sigma #P4333) in 10% Fetal Bovine Serum (FBS) (Sigma #F0804). The cells were routinely passaged and grown to confluency (˜10^6 cells/ml). On the day of the experiment, THP-1 cells were harvested and resuspended into RPMI medium (without FBS). The cells were then counted and viability (>90%) checked by Trypan blue (Sigma #T8154). Appropriate dilutions were made to give a concentration of 625,000 cells/ml. To this diluted cell solution was added LPS (Sigma #[4524) to give a 1 μg/ml Final Assay Concentration (FAC). 40μ of the final preparation was aliquoted into each well of a 96-well plate. The plate thus prepared was used for compound screening.
The following method step-by-step assay was followed for compound screening. • 1. Seed THP-1 cells (25,000 cells/well) containing 1.0 μg/ml LPS in 40μ of RPMI medium (without FBS) in 96-well, black walled, clear bottom cell culture plates coated with poly-D-lysine (VWR #734-0317) • 2. Add 5 μl compound (8 points half-log dilution, with […]) or vehicle (DMSO 0.1% FAC) to the appropriate wells • 3. Incubate for 3 hrs at 37° C. and 5% CO2 • 4. Add 5 μl nigericin (Sigma #N7143) (FAC 5 μM) to all wells • 5. Incubate for 1 hr at 37° C. and 5% CO2 • 6. At the end of the incubation period, spin plates at 300×g for 3 mins and remove supernatant • 7. Then add 50 μl of resazurin (Sigma #R7017) (FAC 100 μM resazurin in RPMI medium without FBS) and incubate plates for a further 1-2 hrs at 37° C. and 5% CO2 • 8. Plates were read in an Envision reader at Ex 560 nm and Em 590 nm • 9. IC50 data is fitted to a non-linear regression equation (log inhibitor vs response-variable slope 4-parameters)
On the technique in general: The colour change of resazurin is a common sign of viable cells or microbes.
Take `CCC(=O)N1CCC(S(=O)(=O)NC(=O)Nc2c3c(cc4c2CCC4)CCC3)CC1` [Example 10, N-((1,2,3,5,6,7-Hexahydro-s-indacen-4-yl)carbamoyl)-1-propionylpiperidine-4-sulfonamide, potassium salt]: the negative-log IC50 (pIC50) is 5.00 to 6.00.

Take `CC(C)C(=O)N1CCC(S(=O)(=O)NC(=O)Nc2c3c(cc4c2CCC4)CCC3)CC1` [Example 11, N-((1,2,3,5,6,7-Hexahydro-s-indacen-4-yl)carbamoyl)-1-isobutyrylpiperidine-4-sulfonamide, potassium salt]: the pIC50 is 5.00 to 6.00.

On to `COCC(=O)N1CCC(S(=O)(=O)NC(=O)Nc2c3c(cc4c2CCC4)CCC3)CC1` [Example 12, N-((1,2,3,5,6,7-Hexahydro-s-indacen-4-yl)carbamoyl)-1-(2-methoxyacetyl)piperidine-4-sulfonamide, potassium salt], for which the pIC50 is 5.00 to 6.00.

In the case of `N#CCN1CCC(S(=O)(=O)NC(=O)Nc2c3c(cc4c2CCC4)CCC3)CC1` [Example 14, 1-(Cyanomethyl)-N-((1,2,3,5,6,7-hexahydro-s-indacen-4-yl)carbamoyl)piperidine-4-sulfonamide, potassium salt], the pIC50 is 5.00 to 6.00.

For `O=C(Nc1c2c(cc3c1CCC3)CCC2)NS(=O)(=O)C1CCN(C2CCC2)CC1` [Example 15, 1-Cyclobutyl-N-((1,2,3,5,6,7-hexahydro-s-indacen-4-yl)carbamoyl)piperidine-4-sulfonamide, potassium salt], the pIC50 was 5.00 to 6.00.

For the molecule `CCCN1CCC(S(=O)(=O)NC(=O)Nc2c3c(cc4c2CCC4)CCC3)CC1` [Example 19, N-((1,2,3,5,6,7-Hexahydro-s-indacen-4-yl)carbamoyl)-1-propyl piperidine-4-sulfonamide, potassium salt], the pIC50 is 5.00 to 6.00.

On to `O=C(Nc1c2c(cc3c1CCC3)CCC2)NS(=O)(=O)C1CCN(C2COC2)CC1` [Example 20, N-((1,2,3,5,6,7-Hexahydro-s-indacen-4-yl)carbamoyl)-1-(oxetan-3-yl)piperidine-4-sulfonamide, potassium salt], for which the pIC50 was 5.00 to 6.00.

Turning to `COC(=O)CN1CCC(S(=O)(=O)NC(=O)Nc2c3c(cc4c2CCC4)CCC3)CC1` [Example 21, Methyl 2-(4-(N-((1,2,3,5,6,7-Hexahydro-s-indacen-4-yl)carbamoyl)sulfamoyl)piperidin-1-yl)acetate, potassium salt], the pIC50 is 5.00 to 6.00.

Consider `O=C(Nc1c2c(cc3c1CCC3)CCC2)NS(=O)(=O)C1CCN(CCF)CC1` [Example 22, 1-(2-Fluoroethyl)-N-((1,2,3,5,6,7-hexahydro-s-indacen-4-yl)carbamoyl)piperidine-4-sulfonamide, potassium salt], for which the pIC50 was 5.00 to 6.00.

For the molecule `O=C(Nc1c2c(cc3c1CCC3)CCC2)NS(=O)(=O)C1CCN(C2CC2)CC1` [Example 23, 1-Cyclopropyl-N-((1,2,3,5,6,7-hexahydro-s-indacen-4-yl)carbamoyl)piperidine-4-sulfonamide, potassium salt], the pIC50 is 5.00 to 6.00.

`O=C(Nc1c2c(cc3c1CCC3)CCC2)NS(=O)(=O)C1CCN(C(=O)C2CCC2)CC1` [Example 25, 1-(Cyclobutanecarbonyl)-N-((1,2,3,5,6,7-hexahydro-s-indacen-4-yl)carbamoyl)piperidine-4-sulfonamide, potassium salt]: the pIC50 was 5.00 to 6.00.

With `O=C(Nc1c2c(cc3c1CCC3)CCC2)NS(=O)(=O)C1CCCN(C(=O)NC2CCC2)C1` (centres unmarked) [Example 27, N-Cyclobutyl-3-(N-((1,2,3,5,6,7-hexahydro-s-indacen-4-yl)carbamoyl)sulfamoyl)piperidine-1-carboxamide, potassium salt], the pIC50 is 5.00 to 6.00.

Take `CS(=O)(=O)N1CCC(S(=O)(=O)NC(=O)Nc2c3c(cc4c2CCC4)CCC3)CC1` [Example 29, N-((1,2,3,5,6,7-Hexahydro-s-indacen-4-yl)carbamoyl)-1-(methylsulfonyl)piperidine-4-sulfonamide, potassium salt]: the pIC50 was 5.00 to 6.00.

With `CN1CCC(S(=O)(=O)NC(=O)Nc2c3c(cc4c2CCC4)CCC3)C1` (centres unmarked) [Example 36, N-((1,2,3,5,6,7-Hexahydro-s-indacen-4-yl)carbamoyl)-1-methylpyrrolidine-3-sulfonamide, potassium salt], the pIC50 is 5.00 to 6.00.

Regarding `CN(C)C(=O)N1CCC(S(=O)(=O)NC(=O)Nc2c3c(cc4c2CCC4)CCC3)C1` (centres unmarked) [Example 40, 3-(N-((1,2,3,5,6,7-Hexahydro-s-indacen-4-yl)carbamoyl)sulfamoyl)-N,N-dimethylpyrrolidine-1-carboxamide], the pIC50 was 5.00 to 6.00.

Regarding `O=C(Nc1c2c(cc3c1CCC3)CCC2)NS(=O)(=O)C1CN2CCC1CC2` (centres unmarked) [Example 43, N-((1,2,3,5,6,7-Hexahydro-s-indacen-4-yl)carbamoyl) quinuclidine-3-sulfonamide, potassium-salt], the pIC50 was 5.00 to 6.00.

In the case of `CCN1CCC(N2CCC(S(=O)(=O)NC(=O)Nc3c4c(cc5c3CCC5)CCC4)C2)CC1` (centres unmarked) [Example 44, 1-(1-Ethylpiperidin-4-yl)-N-((1,2,3,5,6,7-hexahydro-s-indacen-4-yl)carbamoyl)pyrrolidine-3-sulfonamide, potassium salt], the pIC50 was 5.00 to 6.00.

For the molecule `CC(C)N1CCC(S(=O)(=O)NC(=O)Nc2c3c(cc4c2CCC4)CCC3)CC1` [Example 47, N-((1,2,3,5,6,7-Hexahydro-s-indacen-4-yl)carbamoyl)-1-iso-propylpiperidine-4-sulfonamide, potassium salt], the negative logarithm of the IC50 (pIC50) is 5.00 to 6.00.

Regarding `CCN1CCC(N2CCC(S(=O)(=O)NC(=O)Nc3c4c(cc5c3CCC5)CCC4)CC2)CC1` [Example 48, 1′-Ethyl-N-((1,2,3,5,6,7-hexahydro-s-indacen-4-yl)carbamoyl)-[1,4′-bipiperidine]-4-sulfonamide, potassium salt], the pIC50 is 5.00 to 6.00.

Take `CCN1CC2(CC(S(=O)(=O)NC(=O)Nc3c4c(cc5c3CCC5)CCC4)C2)C1` [Example 50, 2-Ethyl-N-((1,2,3,5,6,7-hexahydro-s-indacen-4-yl)carbamoyl)-2-azaspiro[3.3]heptane-6-sulfonamide, potassium salt]: the pIC50 was 5.00 to 6.00.

Consider `CC(C)N1CC(N2CCC(S(=O)(=O)NC(=O)Nc3c4c(cc5c3CCC5)CCC4)C2)C1` (centres unmarked) [Example 51, N-((1,2,3,5,6,7-Hexahydro-s-indacen-4-yl)carbamoyl)-1-(1-isopropylazetidin-3-yl)pyrrolidine-3-sulfonamide, potassium salt], for which the pIC50 is 5.00 to 6.00.

In the case of `O=C(Nc1c2c(cc3c1CCC3)CCC2)NS(=O)(=O)C1CCN(C(=O)C(F)(F)F)C1` (centres unmarked) [Example 54, N-((1,2,3,5,6,7-Hexahydro-s-indacen-4-yl)carbamoyl)-1-(2,2,2-trifluoroacetyl)pyrrolidine-3-sulfonamide, potassium salt], the pIC50 was 5.00 to 6.00.

With `O=C(Nc1c2c(cc3c1CCC3)CCC2)NS(=O)(=O)C1CCCN(CC2CC2)C1` (centres unmarked) [Example 57, 1-(Cyclopropylmethyl)-N-((1,2,3,5,6,7-hexahydro-s-indacen-4-yl)carbamoyl)piperidine-3-sulfonamide, potassium salt], the pIC50 was 5.00 to 6.00.

As for `N#CCN1CCCC(S(=O)(=O)NC(=O)Nc2c3c(cc4c2CCC4)CCC3)C1` (centres unmarked) [Example 58, 1-(Cyanomethyl)-N-((1,2,3,5,6,7-hexahydro-s-indacen-4-yl)carbamoyl)piperidine-3-sulfonamide, potassium salt], the pIC50 was 5.00 to 6.00.

Turning to `C#CCN1CCCC(S(=O)(=O)NC(=O)Nc2c3c(cc4c2CCC4)CCC3)C1` (centres unmarked) [Example 59, N-((1,2,3,5,6,7-Hexahydro-s-indacen-4-yl)carbamoyl)-1-(prop-2-yn-1-yl)piperidine-3-sulfonamide, potassium salt], the pIC50 is 5.00 to 6.00.

For `CN1CCCC(S(=O)(=O)NC(=O)Nc2c3c(cc4c2CCC4)CCC3)C1` (centres unmarked) [Example 60, N-((1,2,3,5,6,7-Hexahydro-s-indacen-4-yl)carbamoyl)-1-methylpiperidine-3-sulfonamide, potassium salt], the pIC50 is 5.00 to 6.00.

For `CN(C)C(=O)N1CCC(S(=O)(=O)NC(=O)Nc2c3c(cc4c2CCC4)CCC3)CC1` [Example 61, 4-(N-((1,2,3,5,6,7-Hexahydro-s-indacen-4-yl)carbamoyl)sulfamoyl)-N,N-dimethylpiperidine-1-carboxamide], the pIC50 was 5.00 to 6.00.

For `CC(C)N1CC(N2CCC(S(=O)(=O)NC(=O)Nc3c4c(cc5c3CCC5)CCC4)CC2)C1` [Example 62, N-((1,2,3,5,6,7-Hexahydro-s-indacen-4-yl)carbamoyl)-1-(1-isopropylazetidin-3-yl)piperidine-4-sulfonamide, potassium salt], the pIC50 is 5.00 to 6.00.

For `CC(C)N1CC2(CC(S(=O)(=O)NC(=O)Nc3c4c(cc5c3CCC5)CCC4)C2)C1` [Example 63, N-((1,2,3,5,6,7-Hexahydro-s-indacen-4-yl)carbamoyl)-2-isopropyl-2-azaspiro[3.3]heptane-6-sulfonamide, potassium salt], the pIC50 was 5.00 to 6.00.
